Two compounds from paper PMC3105096, “Construction of Chimeric Dual-Chain Avidin by Tandem Fusion of the Related Avidins” (PLoS ONE, 2011) can be followed below.

The target of assay [1] is T1, AVR4(C122S); also printed AVR4(C112S) (Gallus gallus, UniProt P56734, C146S).
T1 construct: recombinant AVR4 with cysteine-to-serine change, tetramer
The assay is described as follows: SDS-PAGE thermostability of acylated protein. The assay is classed as binding. To be noted: thermal shift of subunit dissociation; Tr without biotin 90 °C; 140 µM D-biotin. From the text:
SDS-PAGE thermostability of acylated protein on AVR4(C122S); also printed AVR4(C112S)

The target in assay [2] is chimeric dual-chain avidin dcAVD/AVR4 (tandem fusion of circularly permuted avidin cp54 and circularly permuted AVR4 cp65) (chicken). The assay is described as follows: SEC; Superdex 75 10/300 GL, 50 ug protein in 50 mM NaPO4 pH 7, 650 mM NaCl; column calibrated with Bio-Rad standards 1.5-67 kDa; dimer of the dual-chain polypeptide (pseudotetramer). Background: Size exclusion chromatography separates by hydrodynamic size, large species first.

T1 sequence (P56734 25-150 C146S): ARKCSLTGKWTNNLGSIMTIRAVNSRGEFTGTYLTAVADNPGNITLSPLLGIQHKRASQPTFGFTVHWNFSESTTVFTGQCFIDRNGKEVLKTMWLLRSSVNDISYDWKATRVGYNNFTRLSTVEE

On to `O=C(O)CCCC[C@@H]1SC[C@@H]2NC(=O)N[C@@H]21` [D-biotin], for which, in assay [1], the “SDS-PAGE / Tr ^(+BTN) (°C)” value stood at 95 °C. As a reminder, the stoichiometry N is the number of molecules, sites or subunits per partner or assembly. For the compound “chimeric dual-chain avidin dcAVD/AVR4 (tandem fusion of circularly permuted avidin cp54 and circularly permuted AVR4 cp65)”, in assay [2], the stoichiometry N turned out to be 2.
